The source made the active and inactive calls. The calls are words filed in the database; no cut-off is given here.
Assays:
[1] = system: Plasmodium gallinaceum; test: Antimalarial activity against Plasmodium gallinaceum B infected in chick assessed as host survival time at 320 mg/kg, sc treated immediately after infection; assay type: functional
[2] = system: Plasmodium berghei; test: Antimalarial activity against Plasmodium berghei infected in mouse assessed as host survival time at 640 mg/kg, sc treated after 3 days of infection (reference value: 6.2 +/- 0.5 days); assay type: functional
[3] = system: Plasmodium berghei; test: Antimalarial activity against Plasmodium berghei infected in mouse assessed as host survival time at 320 mg/kg, sc treated after 3 days of infection (reference value: 6.2 +/- 0.5 days); assay type: functional
[4] = system: Plasmodium gallinaceum; test: Antimalarial activity against Plasmodium gallinaceum B infected in chick assessed as host survival time at 160 mg/kg, sc treated immediately after infection; assay type: functional
[5] = system: Plasmodium berghei; test: Antimalarial activity against Plasmodium berghei infected in mouse assessed as host cured at 320 to 640 mg/kg, sc treated after 3 days of infection; assay type: functional, organism-based
[6] = system: Plasmodium berghei; test: Antimalarial activity against Plasmodium berghei infected in mouse assessed as host survival time at 160 mg/kg, sc treated after 3 days of infection (reference value: 6.2 +/- 0.5 days); assay type: functional; conditions: route subcutaneous
[7] = system: Gallus gallus; test: Toxicity in chick at 160 mg/kg, sc; assay type: organism-based; set-up: dose 160 mg/kg, route subcutaneous; conditions: chicken, in vivo
[8] = system: Gallus gallus; test: Toxicity in chick at 320 mg/kg, sc; assay type: organism-based; set-up: dose 320 mg/kg, route subcutaneous; conditions: chicken, in vivo
[9] = system: Mus musculus; test: Toxicity in mouse at 640 mg/kg, sc; assay type: organism-based; set-up: dose 640 mg/kg, route subcutaneous; conditions: in vivo
[10] = system: Plasmodium gallinaceum; test: Antimalarial activity against Plasmodium gallinaceum B infected in chick assessed as host survival time at 80 mg/kg, sc treated immediately after infection; assay type: functional, organism-based; set-up: dose 80 mg/kg
[11] = system: Gallus gallus; test: Toxicity in chick at 120 mg/kg, sc; assay type: organism-based; set-up: dose 120 mg/kg, route subcutaneous; conditions: chicken, in vivo
[12] = system: Plasmodium gallinaceum; test: Antimalarial activity against Plasmodium gallinaceum B infected in chick assessed as host survival time at 120 mg/kg, sc treated immediately after infection; assay type: functional, organism-based; set-up: dose 120 mg/kg

`Clc1ccc(-c2c/c(=N\CCCN3CCOCC3)c3cc(Br)ccc3s2)cc1Cl` was tested, and the MST [1] was “inactive” and the MST ([2]; route subcutaneous) was 10.5 days.
In the case of `OCCN1CCN(CC/N=c2\cc(-c3ccc(Cl)cc3)sc3ccc(Cl)cc23)CC1`, the MST [1] is reported as “inactive” and the MST [2] is reported as “inactive”.
With `CCN(CC)CCC/N=c1\cc(-c2ccccc2)sc2ccc(Cl)cc12.NS(=O)(=O)O` the MST [1] was “inactive”, the MST ([3]; route subcutaneous) was 9.1 days and the MST ([2]; route subcutaneous) was 10.3 days.
In the case of `Clc1ccc(-c2c/c(=N\Cc3ccccn3)c3cc(Cl)ccc3s2)cc1`, the MST [1] is reported as “inactive” and the MST [3] is reported as “inactive”.
In the case of `Clc1ccc2sc(-c3ccccc3)c/c(=N\C3CN4CCC3CC4)c2c1` (centres undefined), the MST [1] is reported as “inactive” and the MST [2] is reported as “inactive”.
For `CN(C)CCC/N=c1\cc(-c2ccc(Cl)cc2)sc2ccc(Cl)cc12`, the MST ([4]; route subcutaneous) was 3.4 days, the MST ([1]; route subcutaneous) was 4.4 days and the Activity [5] was “Active”. For the same molecule, the MST ([3]; route subcutaneous) was 9.8 days and the MST [6] was 7 days.
In the case of `Clc1ccc2sc(-c3ccccc3)c/c(=N\CCN3CCCC3)c2c1`, the MST [2] is reported as “inactive”.
`CCN(CC)CCCC(C)/N=c1\cc(C23CC4CC(CC(C4)C2)C3)sc2ccc(Cl)cc12.Cl` (centres undefined) was tested, and the MST [4] was “inactive”, the Activity [7] was “Toxic” and the MST [2] was “inactive”.
For `Cl.Clc1ccc(-c2c/c(=N\CCCN3CCCCC3)c3cc(Cl)ccc3s2)cc1`, the MST ([1]; route subcutaneous) was 5.2 days and the MST [2] was “inactive”.
With `Clc1ccc2sc(-c3ccccc3)c/c(=N\c3cccnc3)c2c1` the MST [1] was “inactive” and the MST [3] was “inactive”.
`CN1CCN(CCC/N=c2\cc(-c3ccc(Cl)cc3)sc3ccc(Cl)cc23)CC1` was tested, and the MST ([1]; route subcutaneous) was 3.4 days, the Activity [5] was “Active” and the MST ([3]; route subcutaneous) was 11.2 days. It also gave an MST [6] of 6.2 days.
In the case of `CN1CCN(CCC/N=c2\cc(-c3ccccc3)sc3ccc(Cl)cc23)CC1`, the MST [1] is reported as “inactive” and the MST ([3]; route subcutaneous) is reported as 7.3 days.
For `CCN(CC)CCCC(C)/N=c1\cc(-c2ccc(Cl)c(Cl)c2)sc2ccc(Br)cc12` (centres undefined), the MST [4] was “inactive” and the MST [3] was “inactive”.
`Cl.Clc1ccc2sc(-c3ccccc3)c/c(=N\CCCN3CCOCC3)c2c1` gave an MST ([2]; route subcutaneous) of 6.8 days.
In the case of `Cl.OCCN1CCN(CCCC/N=c2\cc(-c3ccc(Cl)cc3)sc3ccc(Cl)cc23)CC1`, the Activity [8] is reported as “Toxic”, the MST ([3]; route subcutaneous) is reported as 7.4 days and the Activity [9] is reported as “Toxic”. It also gave an MST ([2]; route subcutaneous) of 7.9 days.
`CCN(CC)CCCC(C)/N=c1\cc(-c2ccc(Cl)cc2)sc2ccccc12.Cl` (centres undefined) was tested, and the MST [10] was “inactive”, the MST [3] was “inactive” and the Activity [9] was “Toxic”. The Activity [7] was “Toxic”.
In the case of `NCCC/N=c1\cc(-c2ccccc2)sc2ccc(Cl)cc12`, the MST [2] is reported as “inactive”.
For `CCN(CC)CCCC(C)/N=c1\cc(-c2ccccc2)sc2ccc(Cl)cc12.Cl` (centres undefined), the Activity [8] was “Toxic”, the Activity [5] was “Active” and the MST ([3]; route subcutaneous) was 10.6 days. The MST [6] was 8 days.
In the case of `Clc1ccc(-c2c/c(=N\CCCCC3CCCCC3)c3cc(Cl)ccc3s2)cc1`, the MST [1] is reported as “inactive” and the MST [2] is reported as “inactive”.
`CCN(CC)CCCC(C)/N=c1\cc(-c2ccc(F)cc2)sc2ccc(Br)cc12.Cl` (centres undefined) was tested, and the MST [4] was “inactive”, the Activity [8] was “Toxic” and the MST ([3]; route subcutaneous) was 6.9 days. For the same molecule, the MST ([2]; route subcutaneous) was 10.1 days.
With `CN1CCN(CCC/N=c2\cc(-c3ccc(Cl)cc3)sc3ccc(Br)cc23)CC1` the MST [4] was “inactive” and the MST [3] was “inactive”.
For `Clc1ccc2sc(-c3ccccc3)c/c(=N\CCCCC3CCCCC3)c2c1`, the MST [1] was “inactive” and the MST [2] was “inactive”.
`CCN(CC)CCCC(C)/N=c1\cc(-c2ccc(Cl)cc2)sc2ccc(Cl)cc12.Cl` (centres undefined) was tested, and the MST ([1]; route subcutaneous) was 4.7 days and the MST [2] was “inactive”.
In the case of `CCN(CC)CCCC(C)/N=c1\cc(-c2ccc(F)cc2)sc2ccc(F)cc12.Cl` (centres undefined), the Activity [11] is reported as “Toxic” and the MST [2] is reported as “inactive”.
For `CN(C)CC/N=c1\cc(-c2ccccc2)sc2ccc(Cl)cc12`, the MST [2] was “inactive”.
`N=C(N)N/N=c1\cc(-c2ccccc2)sc2ccc(Cl)cc12` gave an MST ([2]; route subcutaneous) of 6.2 days.
Work on `CN(C)CCC/N=c1\cc(-c2ccccc2)sc2ccc(Cl)cc12.Cl.O` yielded an MST ([2]; route subcutaneous) of 13.6 days.
`CN1CCN(CCC/N=c2\cc(-c3ccc(Cl)cc3)sc3ccccc23)CC1` was tested, and the MST ([3]; route subcutaneous) was 6.9 days.
`CCN(CC)CCCC(C)/N=c1\cc(-c2ccc(Cl)c(Cl)c2)sc2ccc(F)cc12` (centres undefined) was tested, and the MST [12] was “inactive” and the MST [2] was “inactive”.
`CN(C)CCC/N=c1\cc(-c2ccccc2)sc2ccc(Br)cc12.Cl` showed an MST ([3]; route subcutaneous) of 12.6 days.
In the case of `CN1CCCC1CC/N=c1\cc(-c2ccc(Cl)c(Cl)c2)sc2ccc(F)cc12` (centres undefined), the MST [1] is reported as “inactive” and the MST [2] is reported as “inactive”.
With `CCN(CC)CCCC(C)/N=c1\cc(-c2ccccc2)sc2ccc(Br)cc12.Cl` (centres undefined) the MST [4] was “inactive”, the Activity [5] was “Active” and the MST [6] was 9.5 days.
For `O=C(NCCC/N=c1\cc(-c2ccccc2)sc2ccc(Cl)cc12)OCc1ccccc1`, the MST [2] was “inactive”.
In the case of `CCN(CC)CCCC(C)/N=c1\cc(-c2ccc(Cl)cc2)sc2ccc(Br)cc12.Cl` (centres undefined), the MST ([4]; route subcutaneous) is reported as 5 days and the MST [3] is reported as “inactive”.
In the case of `CCN(CC)CCCC(C)/N=c1\cc(-c2ccc(Cl)c(Cl)c2)sc2ccc(OC)cc12` (centres undefined), the MST [12] is reported as “inactive”.
In the case of `OCCN1CCN(CCCC/N=c2\cc(C34CC5CC(CC(C5)C3)C4)sc3ccc(Br)cc23)CC1`, the MST [3] is reported as “inactive”, the Activity [11] is reported as “Toxic” and the MST [12] is reported as “inactive”.
For `CN(C)CCC/N=c1\cc(-c2ccc(Cl)cc2)sc2ccccc12.Cl`, the Activity [5] was “Active” and the Activity [9] was “Toxic”.
With `CN1CCCC1CC/N=c1\cc(-c2ccccc2)sc2ccc(Cl)cc12` (centres undefined) the MST ([3]; route subcutaneous) was 7 days.
With `Clc1ccc2sc(-c3ccccc3)c/c(=N\C34CC5CC(CC(C5)C3)C4)c2c1` the MST [1] was “inactive” and the MST [2] was “inactive”.
